Patent publication US20090131462A1, “Fungicidally Active Agent” (BASF AKTIENGESELLSCHAFT, priority 2005, published 2009)

Tested on: Pyrenophora teres
Test: Activity against net blotch of barley caused by Pyrenophora teres, 2-day protective application
Format: in vivo
Settings: individual active compound, barley seedlings cultivar Hanna, inoculated 48 hours after spraying, evaluated after 6 days
Procedure: The active compounds were used either as a commercial formulation or employed as a stock solution. The stock solution was prepared from 25 mg of active compound which had been made up to 10 ml using a mixture of acetone and/or DMSO as solvent and the emulsifier Uniperol® EL (wetting agent having emulsifying and dispersing action based on ethoxylated alkylphenols) in a volume ratio of solvent to emulsifier of 99:1. The volume was then made up to 100 ml using water.
Evaluation was carried out by visually determining the infected leaf areas in %. These percentages were converted into efficacies in % of the untreated control. At an efficacy of 0, the infection of the treated plants corresponds to that of the untreated control plants; at an efficacy of 100, the treated plants are not infected.
The expected efficacies for active compound combinations were determined using Colby's formula (Colby, S. R., “Calculating synergistic and antagonistic responses of herbicide combinations”, Weeds, 15, pp. 20-22, 1967) and compared to the observed efficacies.
Colby's formula: E=x+y−xy/100
E expected efficacy, expressed in % of the untreated control, when using the mixture of the active compounds A and B at the concentrations a and b x efficacy, expressed in % of the untreated control, when using the active compound A at the concentration a y efficacy, expressed in % of the untreated control, when using the active compound B at the concentration b Activity against net blotch of barley caused by Pyrenophora teres, 2-day protective application Leaves of potted barley seedlings of the cultivar “Hanna” were sprayed to runoff point with an aqueous suspension having the concentration of active compound stated below. 48 hours after the spray coating had dried on, the test plants were inoculated with an aqueous spore suspension of Pyrenophora teres (synonym Drechslera teres), the net blotch pathogen. […] After 6 days, the extent of the development of the disease was determined visually in % infection of the total leaf area.

Row | Compound | Efficacy (4 ppm in the spray liquor, % of the untreated control) | Efficacy (concentration in the spray liquor printed as 0 ppm) | Efficacy (250 ppm in the spray liquor)
1 | CC(C)CC(C)c1sccc1NC(=O)c1cn(C)nc1C(F)(F)F (stereo not drawn) [compound A, N-[2-(1,3-dimethylbutyl)-3-thienyl]-1-methyl-3-(trifluoromethyl)-1H-pyrazole-4-carboxamide] | 22% | 0.5% | –
2 | metiram | – | – | 0%
